The text below walks through data of ChEMBL document CHEMBL5465560, “Selectivity Literature for EUbOPEN Chemogenomic Library” (2024).

For experiment [1], the target named is T1, Inhibitor of nuclear factor kappa-B kinase subunit beta (Homo sapiens) (UniProt O14920).
T1 sequence (whole entry): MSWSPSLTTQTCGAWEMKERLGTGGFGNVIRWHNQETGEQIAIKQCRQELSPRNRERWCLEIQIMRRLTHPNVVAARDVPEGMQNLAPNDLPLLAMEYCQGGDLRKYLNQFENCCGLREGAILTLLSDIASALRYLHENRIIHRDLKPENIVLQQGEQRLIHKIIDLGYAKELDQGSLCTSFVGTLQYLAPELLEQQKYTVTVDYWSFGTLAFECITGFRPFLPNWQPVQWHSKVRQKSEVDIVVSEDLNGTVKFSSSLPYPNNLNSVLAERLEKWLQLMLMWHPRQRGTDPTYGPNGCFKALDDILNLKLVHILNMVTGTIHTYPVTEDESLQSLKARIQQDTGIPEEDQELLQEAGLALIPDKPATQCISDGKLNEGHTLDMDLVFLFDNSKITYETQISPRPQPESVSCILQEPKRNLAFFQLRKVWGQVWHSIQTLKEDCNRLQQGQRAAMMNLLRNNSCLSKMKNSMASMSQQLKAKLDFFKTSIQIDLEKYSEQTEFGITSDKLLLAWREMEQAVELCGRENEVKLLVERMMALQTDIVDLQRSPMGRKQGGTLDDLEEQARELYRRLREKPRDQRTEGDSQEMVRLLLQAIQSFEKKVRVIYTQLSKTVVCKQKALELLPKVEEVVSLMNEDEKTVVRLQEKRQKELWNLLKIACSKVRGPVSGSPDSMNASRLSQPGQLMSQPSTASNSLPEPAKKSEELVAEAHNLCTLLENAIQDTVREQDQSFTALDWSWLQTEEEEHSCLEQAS
Particulars: at 10 µM.

Experiment [2] addresses Interleukin-1 receptor-associated kinase 1 (Homo sapiens) (UniProt P51617). To be noted: at 10 µM.
For experiment [3], the target named is T2, Aurora kinase C (Homo sapiens) (UniProt Q9UQB9).
T2 sequence (whole entry): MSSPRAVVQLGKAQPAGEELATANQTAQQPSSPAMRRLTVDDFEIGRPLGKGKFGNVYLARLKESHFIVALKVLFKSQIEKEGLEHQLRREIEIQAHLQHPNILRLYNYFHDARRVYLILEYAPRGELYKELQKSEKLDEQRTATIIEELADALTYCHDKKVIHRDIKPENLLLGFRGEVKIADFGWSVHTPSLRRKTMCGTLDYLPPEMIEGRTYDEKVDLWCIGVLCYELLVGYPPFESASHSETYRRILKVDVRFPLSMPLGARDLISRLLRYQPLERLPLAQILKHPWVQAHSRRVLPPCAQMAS
The experiment is described as follows: Selectivity interaction (KinomeScan (DiscoverX)) EUB0000092b AURKC. Particulars: at 10 µM.

Experiment [4] addresses T3, Tyrosine-protein kinase Mer (Homo sapiens) (UniProt Q12866).
T3 sequence (whole entry): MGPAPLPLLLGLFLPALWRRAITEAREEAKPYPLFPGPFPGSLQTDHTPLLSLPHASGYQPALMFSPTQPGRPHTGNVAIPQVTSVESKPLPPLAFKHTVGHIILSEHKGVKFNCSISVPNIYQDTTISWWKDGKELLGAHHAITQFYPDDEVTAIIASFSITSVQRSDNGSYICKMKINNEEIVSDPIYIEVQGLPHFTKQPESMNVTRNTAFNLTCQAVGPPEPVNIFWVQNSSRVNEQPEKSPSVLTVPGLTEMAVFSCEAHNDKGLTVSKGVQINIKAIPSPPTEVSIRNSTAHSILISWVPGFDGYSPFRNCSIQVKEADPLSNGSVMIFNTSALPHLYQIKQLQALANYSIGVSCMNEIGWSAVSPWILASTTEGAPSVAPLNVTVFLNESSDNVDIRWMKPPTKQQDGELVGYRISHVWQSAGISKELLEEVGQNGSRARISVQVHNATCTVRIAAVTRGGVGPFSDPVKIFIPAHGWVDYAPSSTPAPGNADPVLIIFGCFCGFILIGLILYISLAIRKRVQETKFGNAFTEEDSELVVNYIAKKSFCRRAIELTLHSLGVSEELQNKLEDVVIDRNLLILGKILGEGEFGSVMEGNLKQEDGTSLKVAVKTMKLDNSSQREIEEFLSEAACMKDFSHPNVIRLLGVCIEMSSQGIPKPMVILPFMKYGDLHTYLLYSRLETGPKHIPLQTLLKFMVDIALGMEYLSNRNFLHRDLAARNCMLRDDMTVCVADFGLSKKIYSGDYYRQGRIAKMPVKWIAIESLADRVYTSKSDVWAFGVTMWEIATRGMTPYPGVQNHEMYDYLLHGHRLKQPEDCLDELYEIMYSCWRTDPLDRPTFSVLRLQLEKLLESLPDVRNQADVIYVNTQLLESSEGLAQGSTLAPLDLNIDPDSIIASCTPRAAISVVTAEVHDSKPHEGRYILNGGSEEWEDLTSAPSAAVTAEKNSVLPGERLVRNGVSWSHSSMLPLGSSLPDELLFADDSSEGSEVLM
Briefly: Selectivity interaction (Kinase screening (Nanosyn)) EUB0000604a MERTK.

In experiment [5] the target is Wee1-like protein kinase (Homo sapiens) (UniProt P30291). Briefly: Selectivity interaction (KinomeScan (DiscoverX)) EUB0000045b WEE1.
For experiment [6], the target named is T4, Phosphatidylinositol 5-phosphate 4-kinase type-2 gamma (Homo sapiens) (UniProt Q8TBX8).
T4 sequence (whole entry): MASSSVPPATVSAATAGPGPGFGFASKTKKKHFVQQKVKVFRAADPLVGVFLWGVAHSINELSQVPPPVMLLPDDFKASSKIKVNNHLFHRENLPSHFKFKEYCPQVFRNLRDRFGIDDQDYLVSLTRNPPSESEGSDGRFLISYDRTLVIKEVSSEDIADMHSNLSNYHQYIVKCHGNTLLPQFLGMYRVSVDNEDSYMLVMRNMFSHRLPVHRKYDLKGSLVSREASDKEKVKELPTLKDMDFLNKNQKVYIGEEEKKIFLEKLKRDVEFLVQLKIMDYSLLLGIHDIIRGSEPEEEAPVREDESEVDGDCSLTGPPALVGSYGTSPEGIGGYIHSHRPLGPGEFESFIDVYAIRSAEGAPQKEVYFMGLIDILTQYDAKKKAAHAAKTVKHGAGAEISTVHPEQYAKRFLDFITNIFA
Briefly: Selectivity interaction (ActivX KiNativ screen (kinase selectivity in THP-1 cell lysates)) EUB0000639a PIP4K2C. The format is subcellular. Particulars: lysate, at 0.01 µM.

The target in experiment [7] is Serine/threonine-protein kinase 24 (Homo sapiens) (UniProt Q9Y6E0). Briefly: Selectivity interaction (Kinase panel (DSF assay)) EUB0001559a STK24.
Experiment [8] deals with cAMP-dependent protein kinase catalytic subunit alpha (Homo sapiens, UniProt P17612). The experiment is described as follows: Selectivity interaction (KinomeScan (DiscoverX)) EUB0000595a PRKACA. To be noted: at 10 µM.
Experiment [9] concerns the target Mast/stem cell growth factor receptor Kit (Homo sapiens, UniProt P10721). Briefly: Selectivity interaction (KinomeScan (DiscoverX)) EUB0001619a KIT. Particulars: at 1 µM.

Chain of Wee1-like protein kinase (Homo sapiens) (P30291 whole entry, looked up): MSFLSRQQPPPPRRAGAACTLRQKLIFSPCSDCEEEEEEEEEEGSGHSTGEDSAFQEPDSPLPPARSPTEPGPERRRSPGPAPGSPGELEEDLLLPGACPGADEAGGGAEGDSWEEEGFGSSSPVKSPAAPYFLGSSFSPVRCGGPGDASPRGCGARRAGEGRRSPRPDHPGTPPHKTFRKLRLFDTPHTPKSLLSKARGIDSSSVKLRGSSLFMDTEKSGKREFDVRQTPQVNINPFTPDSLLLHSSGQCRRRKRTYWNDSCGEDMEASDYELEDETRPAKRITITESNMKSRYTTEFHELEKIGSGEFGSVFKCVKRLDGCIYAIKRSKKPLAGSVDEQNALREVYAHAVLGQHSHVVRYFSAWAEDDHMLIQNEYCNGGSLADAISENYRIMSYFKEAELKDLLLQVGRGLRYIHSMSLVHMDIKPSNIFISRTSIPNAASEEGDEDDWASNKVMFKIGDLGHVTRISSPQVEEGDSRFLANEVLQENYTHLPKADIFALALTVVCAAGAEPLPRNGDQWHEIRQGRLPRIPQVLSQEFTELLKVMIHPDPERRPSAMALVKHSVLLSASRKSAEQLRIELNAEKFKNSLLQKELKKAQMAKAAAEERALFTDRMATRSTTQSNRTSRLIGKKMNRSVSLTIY
Chain of Serine/threonine-protein kinase 24 (Homo sapiens) (Q9Y6E0 whole entry, looked up): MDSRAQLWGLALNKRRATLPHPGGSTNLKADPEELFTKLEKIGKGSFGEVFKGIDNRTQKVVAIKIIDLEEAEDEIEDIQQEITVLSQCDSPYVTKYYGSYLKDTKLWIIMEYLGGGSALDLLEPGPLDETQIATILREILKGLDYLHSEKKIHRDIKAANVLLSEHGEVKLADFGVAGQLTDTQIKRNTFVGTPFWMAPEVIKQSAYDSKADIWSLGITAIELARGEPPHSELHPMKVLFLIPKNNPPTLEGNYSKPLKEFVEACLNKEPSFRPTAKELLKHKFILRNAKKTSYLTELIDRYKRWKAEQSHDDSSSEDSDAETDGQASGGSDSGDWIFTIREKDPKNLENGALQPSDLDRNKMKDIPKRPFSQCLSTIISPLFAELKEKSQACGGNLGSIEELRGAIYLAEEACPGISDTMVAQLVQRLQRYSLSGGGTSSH
Chain of Mast/stem cell growth factor receptor Kit (P10721 whole entry): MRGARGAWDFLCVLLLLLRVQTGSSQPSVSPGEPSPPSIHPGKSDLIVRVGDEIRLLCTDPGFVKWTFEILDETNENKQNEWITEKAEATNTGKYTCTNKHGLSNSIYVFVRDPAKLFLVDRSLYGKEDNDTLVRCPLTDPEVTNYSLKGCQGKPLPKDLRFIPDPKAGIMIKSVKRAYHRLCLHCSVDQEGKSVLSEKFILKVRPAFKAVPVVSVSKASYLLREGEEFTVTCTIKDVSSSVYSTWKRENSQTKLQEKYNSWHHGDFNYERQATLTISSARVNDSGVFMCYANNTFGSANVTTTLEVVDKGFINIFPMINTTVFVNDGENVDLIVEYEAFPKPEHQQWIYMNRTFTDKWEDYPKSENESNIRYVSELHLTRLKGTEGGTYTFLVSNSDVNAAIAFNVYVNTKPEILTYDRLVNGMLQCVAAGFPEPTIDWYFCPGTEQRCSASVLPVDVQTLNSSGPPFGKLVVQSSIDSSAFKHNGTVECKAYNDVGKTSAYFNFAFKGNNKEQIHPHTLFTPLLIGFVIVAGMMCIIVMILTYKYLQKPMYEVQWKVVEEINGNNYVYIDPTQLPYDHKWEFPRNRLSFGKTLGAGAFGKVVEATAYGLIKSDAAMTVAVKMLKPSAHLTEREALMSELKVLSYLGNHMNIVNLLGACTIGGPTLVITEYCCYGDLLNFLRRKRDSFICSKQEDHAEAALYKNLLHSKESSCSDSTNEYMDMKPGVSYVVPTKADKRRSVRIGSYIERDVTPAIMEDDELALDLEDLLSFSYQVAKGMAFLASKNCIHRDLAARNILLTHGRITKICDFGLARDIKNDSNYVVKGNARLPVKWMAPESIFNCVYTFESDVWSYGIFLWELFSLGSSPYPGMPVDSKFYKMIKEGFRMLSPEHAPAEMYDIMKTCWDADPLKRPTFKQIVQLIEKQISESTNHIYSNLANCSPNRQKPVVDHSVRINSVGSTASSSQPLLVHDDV
Chain of Interleukin-1 receptor-associated kinase 1 (Homo sapiens) (P51617 whole entry, looked up): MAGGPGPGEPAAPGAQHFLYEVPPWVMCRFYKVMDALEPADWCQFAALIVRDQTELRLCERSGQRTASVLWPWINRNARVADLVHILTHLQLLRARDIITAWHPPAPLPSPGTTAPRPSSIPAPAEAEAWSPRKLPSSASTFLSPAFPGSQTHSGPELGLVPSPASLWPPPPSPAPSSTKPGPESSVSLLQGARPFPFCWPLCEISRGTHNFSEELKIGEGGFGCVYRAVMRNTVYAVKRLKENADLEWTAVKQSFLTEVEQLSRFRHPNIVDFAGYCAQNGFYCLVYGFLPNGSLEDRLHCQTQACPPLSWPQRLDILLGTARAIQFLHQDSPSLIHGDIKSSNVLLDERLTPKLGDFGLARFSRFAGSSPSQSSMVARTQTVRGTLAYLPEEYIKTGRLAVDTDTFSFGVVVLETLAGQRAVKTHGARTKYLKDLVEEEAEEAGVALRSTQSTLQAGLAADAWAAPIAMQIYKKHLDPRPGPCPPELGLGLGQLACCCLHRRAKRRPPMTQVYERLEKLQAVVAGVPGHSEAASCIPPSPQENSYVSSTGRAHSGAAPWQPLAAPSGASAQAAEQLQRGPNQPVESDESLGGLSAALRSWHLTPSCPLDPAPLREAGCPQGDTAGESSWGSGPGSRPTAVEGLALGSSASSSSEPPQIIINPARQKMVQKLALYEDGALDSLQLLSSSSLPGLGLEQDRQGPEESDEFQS

`Cc1cc([C@@H](C)Nc2ccccc2C(=O)O)c2nc(N3CCOCC3)cc(=O)n2c1` [AZD-6482]: the % of control in [1] and in experiment [2] was 90% each time.

`CCC(=O)N1CCN(c2ccc(-n3c(=O)ccc4cnc5ccc(-c6cnc7ccccc7c6)cc5c43)cc2C(F)(F)F)CC1`: the % of control in [3] worked out at 91%.

In experiment [4], `Cc1cnc(Nc2ccc(F)cc2Cl)nc1-c1c[nH]c(C(=O)N[C@H](CO)c2cccc(Cl)c2)c1` gave a % of inhibition of 9%.

For the molecule `C=CC(=O)Nc1cc(-n2c(=O)ccc3cnc4ccc(-c5ccc(NS(C)(=O)=O)cc5)cc4c32)ccc1C`, the % of control in experiment [5] (at 1 µM) is 100%; in experiment [5] (at 10 µM), 92%.

For the molecule `CC[C@@H]1[C@H](F)C(=O)N[C@@H]1COc1nccc2cc(C(N)=O)c(OC)cc12` [ZIMLOVISERTIB], the % of inhibition in experiment [6] was determined as 7.3%.

`CN(C(=O)c1cnn2cccnc12)c1cc2c(cc1N1CCOCC1)C(=O)N(C[C@@H](F)C(C)(C)O)C2` came in with a dTM in experiment [7] of -0.3 K.

In the case of `COCC(=O)NC/C=C/c1ccc2ncnc(Nc3ccc(Oc4ccc(C)nc4)c(C)c3)c2c1` [CP-724714], the % of control in experiment [8] is 100%.

As to `N#Cc1cccc(-c2c[nH]c3ncnc(N4CCOCC4)c23)c1`, the % of control in experiment [9] is 100%.
